# System: Sprague-Dawley (SD) rats
# Assay: oral glucose tolerance test (OGTT) in SD rats, reduction rate in blood glucose AUC relative to vehicle
# Assay type: in vivo, rat
# Settings: male SD rats
# Description: In this experiment, the compound represented by Formula 1 was prepared by the method described in Example 5 of Korean Patent Laid-Open Publication No. 10-2018-0069718 and dapagliflozin (HY-10450, MedChemExpress Co., Ltd.) was used. As a control group, a vehicle (0.5% carboxymethyl cellulose (CMC)) was used.
# After at least 1 week of acclimatization of 8 to 10 week-old male Sprague-Dawley (SD) rats, an oral glucose tolerance test (OGTT) was performed using healthy rats.
# After 16 hours of fasting, the rats were randomly divided into groups each having 5 rats similar in body weight and blood glucose level, followed by administration of the vehicle (0.5% carboxymethyl cellulose (CMC)), 0.3 mg/kg of the compound represented by Formula 1 alone, 0.1 mg/kg of dapagliflozin alone, or a combination of 0.3 mg/kg of the compound represented by Formula 1 and 0.1 mg/kg of dapagliflozin. One hour after administration of each of the drugs, glucose (2 g/kg) was intraperitoneally injected at a dose of 10 ml/kg. Blood glucose level was measured 60 minutes before glucose injection and 0, 15, 30, 60, and 120 minutes after glucose injection through puncture of the caudal vein using a blood glucose meter (Gluco DR. Almedicus. Co. Ltd.). Results were expressed by a reduction rate (%) in area under the blood glucose curve (AUC) relative to administration of the vehicle.
# Results of measuring AUC from 0 to 60 min and from 0 to 120 min after glucose injection according to the above method are shown in Table 1 and FIG. 1.
# An experiment was conducted in the same manner as in Example 1 except that 0.3 mg/kg of empagliflozin (HY-15409, MedChemExpress Co., Ltd.) was used instead of 0.1 mg/kg of dapagliflozin.
# [1] = Example 1, 0.3 mg/kg alone, 1 h before glucose 2 g/kg
# [2] = Example 2, Formula 1 0.3 mg/kg alone
# [3] = Example 1, 0.1 mg/kg alone, 1 h before glucose 2 g/kg
# [4] = Example 2, empagliflozin 0.3 mg/kg alone
smiles,measurement,setting,value
"CC#C[C@@H](CC(=O)O)c1ccc(O[C@@H]2CCc3c(-c4ccc(O[C@@H]5CCOC5)nc4)ccc(F)c32)cc1 [Compound of Formula 1, (S)-3-(4-(((R)-7-fluoro-4-(6-(((R)-tetrahydrofuran-3-yl)oxy)pyridin-3-yl)-2,3-dihydro-1H-inden-1-yl)oxy)phenyl)hex-4-ynoic acid]",reduction rate (%) in area under the blood glucose curve AUC (0-60 min) relative to vehicle,[1],17.9%
same,reduction rate (%) in area under the blood glucose curve AUC (0-120 min) relative to vehicle,[1],18.1%
same,reduction rate (%) in area under the blood glucose curve AUC (0-60 min) relative to vehicle,[2],21.3%
same,reduction rate (%) in area under the blood glucose curve AUC (0-120 min) relative to vehicle,[2],21.6%
"CCOc1ccc(Cc2cc([C@@H]3O[C@H](CO)[C@@H](O)[C@H](O)[C@H]3O)ccc2Cl)cc1 [Dapagliflozin, dapagliflozin]",reduction rate (%) in area under the blood glucose curve AUC (0-60 min) relative to vehicle,[3],9.8%
same,reduction rate (%) in area under the blood glucose curve AUC (0-120 min) relative to vehicle,[3],6.7%
"OC[C@H]1O[C@@H](c2ccc(Cl)c(Cc3ccc(O[C@H]4CCOC4)cc3)c2)[C@H](O)[C@@H](O)[C@@H]1O [Empagliflozin, empagliflozin]",reduction rate (%) in area under the blood glucose curve AUC (0-60 min) relative to vehicle,[4],5.5%
same,reduction rate (%) in area under the blood glucose curve AUC (0-120 min) relative to vehicle,[4],4.0%

# Reference: patent US20240366579A1, “PHARMACEUTICAL COMPOSITION COMPRISING GPR40 AGONIST AND SGLT-2 INHIBITOR” (ILDONG PHARMACEUTICAL CO., LTD., priority 2021, published 2024)
